US20160075653A1, “NEMATICIDAL N-(PHENYLCYCLOALKYL)CARBOXAMIDES AND N-(PHENYLCYCLOALKYL)THIOCARBOXAMIDES” (BAYER CROPSCIENCE AKTIENGESELLSCHAFT, priority 2013, published 2016)

experiment: Measurement of log P values by HPLC on reversed phase columns (methods [a] pH 2.3, [b] pH 2.7, [c] pH 7.8); format: physicochemical; conditions: HPLC on reversed phase columns, method [b], pH 2.7
Experimental: Measurement of log P-Values:
Measurement of log P Values was Performed According EEC Directive 79/831 Annex V.A8 by HPLC (High Performance Liquid
Chromatography) on reversed phase columns with the following methods: ^[a] Measurement was done at pH 2.3 with 0.1% phosphoric acid and acetonitrile as eluent with a linear gradient from 10% acetonitrile to 95% acetonitrile. ^[b] measurement of LC-MS was done at pH 2.7 with 0.1% formic acid in water and with acetonitrile (contains 0.1% formic acid) as eluent with a linear gradient from 10% acetonitrile to 95% acetonitrile. ^[c] Measurement with LC-MS was done at pH 7.8 with 0.001 molar ammonium hydrogen carbonate solution in water as eluent with a linear gradient from 10% acetonitrile to 95% acetonitrile.
Calibration was done with linear alkan-2-ones (with 3 to 16 carbon atoms) with known log P-values (measurement of log P values using retention times with linear interpolation between successive alkanones). Lambda-max-values were determined using UV-spectra from 200 nm to 400 nm and the peak values of the chromatographic signals.

logP	SMILES
3.76^[b]	O=C(N[C@@H]1CCC[C@@H]1c1ccc(F)c(F)c1)c1ccccc1OC(F)(F)F (relative stereo) [Example 95]
3.79^[b]	O=C(N[C@@H]1CCC[C@@H]1c1ccc(F)c(F)c1)c1sccc1Br (relative stereo) [Example 96]
2.82^[b]	Nc1nc(C(F)(F)F)c(C(=O)N[C@@H]2CCC[C@@H]2c2ccc(F)c(F)c2)s1 (relative stereo) [Example 97]
4.26^[b]	O=C(N[C@@H]1CCC[C@@H]1c1ccc(F)c(F)c1)c1ccccc1Cc1ccccc1 (relative stereo) [Example 98]
2.75^[b]	Cn1cc(C(=O)N[C@@H]2CCC[C@@H]2c2ccc(F)c(F)c2)c(I)n1 (relative stereo) [Example 99]
3.83^[b]	Cn1ccc(I)c1C(=O)N[C@@H]1CCC[C@@H]1c1ccc(F)c(F)c1 (relative stereo) [Example 100]
3.79^[b]	O=C(N[C@@H]1CCC[C@@H]1c1ccc(F)c(F)c1)c1sccc1I (relative stereo) [Example 101]
2.82^[b]	Cc1oncc1C(=O)N[C@@H]1CCC[C@H]1c1ccc(F)c(F)c1 (relative stereo) [Example 102]
3.33^[b]	Cc1cccnc1C(=O)N[C@@H]1CCC[C@H]1c1ccc(F)c(F)c1 (relative stereo) [Example 103]
2.21^[b]	Cc1ncncc1C(=O)N[C@@H]1CCC[C@H]1c1ccc(F)c(F)c1 (relative stereo) [Example 104]
3.35^[b]	O=C(N[C@@H]1CCC[C@H]1c1ccc(F)c(F)c1)c1ccccc1F (relative stereo) [Example 105]
2.80^[b]	O=C(N[C@@H]1CCC[C@H]1c1ccc(F)c(F)c1)c1cccnc1F (relative stereo) [Example 106]
2.62^[b]	O=C(N[C@@H]1CCC[C@H]1c1ccc(F)c(F)c1)c1ccncc1F (relative stereo) [Example 107]
2.64^[b]	Cc1ncc(C(=O)N[C@@H]2CCC[C@H]2c2ccc(F)c(F)c2)s1 (relative stereo) [Example 108]
2.92^[b]	Cc1nnsc1C(=O)N[C@@H]1CCC[C@H]1c1ccc(F)c(F)c1 (relative stereo) [Example 109]
3.31^[b]	N#Cc1ncccc1C(=O)N[C@@H]1CCC[C@H]1c1ccc(F)c(F)c1 (relative stereo) [Example 110]
3.13^[b]	Cn1cccc1C(=O)N[C@@H]1CCC[C@@H]1c1ccc(F)c(F)c1 (relative stereo) [Example 111]
2.73^[b]	Cc1oncc1C(=O)N[C@@H]1CCC[C@@H]1c1ccc(F)c(F)c1 (relative stereo) [Example 112]
2.00^[b]	Cn1cc(C(=O)N[C@@H]2CCC[C@@H]2c2ccc(F)c(F)c2)c(=O)[nH]1 (relative stereo) [Example 113]
3.75^[b]	CCc1ccccc1C(=O)N[C@@H]1CCC[C@@H]1c1ccc(F)c(F)c1 (relative stereo) [Example 114]
2.59^[b]	COc1c(C(=O)N[C@@H]2CCC[C@@H]2c2ccc(F)c(F)c2)c(C)nn1C (relative stereo) [Example 116]
2.86^[b]	Cc1ccc(C(=O)N[C@@H]2CCC[C@@H]2c2ccc(F)c(F)c2)c(Cl)n1 (relative stereo) [Example 117]
3.27^[b]	CC(C)Oc1nn(C)cc1C(=O)N[C@@H]1CCC[C@@H]1c1ccc(F)c(F)c1 (relative stereo) [Example 118]
3.51^[b]	O=C(N[C@@H]1CCC[C@@H]1c1ccc(F)c(F)c1)c1ccccc1OC(F)F (relative stereo) [Example 119]
3.02^[b]	O=C(N[C@@H]1CCC[C@@H]1c1ccc(F)c(F)c1)c1c(Cl)ccnc1Cl (relative stereo) [Example 120]
4.19^[b]	O=C(N[C@@H]1CCC[C@@H]1c1ccc(F)c(F)c1)c1snc(Cl)c1Cl (relative stereo) [Example 121]
3.27^[b]	Cn1nc(C(F)(F)F)c(C(=O)N[C@@H]2CCC[C@@H]2c2ccc(F)c(F)c2)c1F (relative stereo) [Example 122]
3.46^[b]	Cc1nc(Br)sc1C(=O)N[C@@H]1CCC[C@@H]1c1ccc(F)c(F)c1 (relative stereo) [Example 123]
3.68^[b]	O=C(N[C@@H]1CCC[C@@H]1c1ccc(F)c(F)c1)c1ccc(C(F)(F)F)nc1Cl (relative stereo) [Example 124]
2.88^[b]	Cn1cc(C(=O)N[C@@H]2CCC[C@H]2c2ccc(F)c(F)c2)c(C(F)F)n1 (relative stereo) [Example 125]

same assay, conditions: HPLC reversed phase, method [b] (pH 2.7)

logP	SMILES
3.11^[b]	O=C(N[C@@H]1CC[C@H]1c1ccccc1Cl)c1c(F)cccc1F (relative stereo) [Example 243]
3.33^[b]	O=C(N[C@@H]1CC[C@H]1c1ccccc1Cl)c1ccccc1Br (relative stereo) [Example 244]
2.89^[b]	O=C(N[C@@H]1CC[C@H]1c1ccccc1Cl)c1cccnc1C(F)(F)F (relative stereo) [Example 245]
3.77^[b]	O=C(N[C@@H]1CC[C@@H]1c1ccccc1Cl)c1ncc(C(F)(F)F)cc1Cl (relative stereo) [Example 246]
3.65^[b]	O=C(N[C@@H]1CC[C@@H]1c1ccccc1Cl)c1ccc(Cl)cc1Cl (relative stereo) [Example 249]
2.47^[b]	Cn1cc(C(=O)N[C@@H]2CC[C@@H]2c2ccccc2Cl)c(C(F)F)n1 (relative stereo) [Example 255]
3.69^[b]	O=C(N[C@@H]1CC[C@H]1c1ccc(Cl)cc1Cl)c1ncccc1Cl (relative stereo) [Example 257]
4.53^[b]	O=C(N[C@@H]1CC[C@H]1c1ccc(Cl)cc1Cl)c1ncc(C(F)(F)F)cc1Cl (relative stereo) [Example 258]
4.23^[b]	O=C(N[C@@H]1CC[C@@H]1c1ccc(Cl)cc1Cl)c1ncc(C(F)(F)F)cc1Cl (relative stereo) [Example 259]
2.72^[b]	Cn1cc(C(=O)N[C@@H]2CC[C@H]2c2ccccc2Cl)c(C(F)F)n1 (relative stereo) [Example 262]
2.75^[b]	Cn1cc(C(=O)N[C@@H]2CC[C@@H]2c2ccccc2C(F)(F)F)c(C(F)F)n1 (relative stereo) [Example 263]
4.09^[b]	O=C(N[C@@H]1CC[C@H]1c1ccc(Cl)cc1Cl)c1ccccc1I (relative stereo) [Example 264]
4.48^[b]	O=C(N[C@@H]1CC[C@H]1c1ccc(Cl)cc1Cl)c1ccc(Cl)cc1Cl (relative stereo) [Example 265]
4.16^[b]	O=C(N[C@@H]1CC[C@@H]1c1ccc(Cl)cc1Cl)c1ccc(Cl)cc1Cl (relative stereo) [Example 266]
3.24^[b]	O=C(N[C@@H]1CC[C@H]1c1ccccc1C(F)(F)F)c1c(F)cccc1F (relative stereo) [Example 267]
2.64^[b]	O=C(N[C@@H]1C[C@@H]1c1ccc(Cl)cc1)c1c(F)cccc1F (relative stereo) [Example 268]
2.79^[b]	O=C(N[C@@H]1C[C@@H]1c1ccc(Cl)cc1)c1ccccc1F (relative stereo) [Example 269]
3.56^[b]	Cn1cc(C(=O)N[C@@H]2CCCC[C@H]2c2ccccc2C(F)(F)F)c(C(F)F)n1 (relative stereo) [Example 288]
3.27^[b]	O=C(N[C@@H]1CCC[C@H]1c1ccccc1C(F)(F)F)c1cccnc1C(F)(F)F (relative stereo) [Example 289]

same assay, conditions: HPLC reversed phase, method [c] pH 7.8

logP	SMILES
2.59^[c];	O=C(N[C@@H]1C[C@@H]1c1ccc(Cl)cc1)c1c(F)cccc1F (relative stereo) [Example 268]
2.75^[c];	O=C(N[C@@H]1C[C@@H]1c1ccc(Cl)cc1)c1ccccc1F (relative stereo) [Example 269]

same assay, conditions: method [b], HPLC reversed phase, pH 2.7

logP	SMILES
3.13^[b]	CCOc1nn(C)cc1C(=O)N[C@@H]1CCC[C@H]1c1ccc(F)c(F)c1 (relative stereo) [Example 127]
3.42^[b]	Cc1nc(C(F)(F)F)c(C(=O)N[C@@H]2CCC[C@H]2c2ccc(F)c(F)c2)s1 (relative stereo) [Example 128]
3.58^[b]	O=C(N[C@@H]1CCC[C@H]1c1ccc(F)c(F)c1)c1ccsc1I (relative stereo) [Example 129]
3.39^[b]	O=C(N[C@@H]1CCC[C@H]1c1ccc(F)c(F)c1)C1=C(C(F)(F)F)OCCS1 (relative stereo) [Example 130]
3.56^[b]	O=C(N[C@@H]1CCC[C@H]1c1ccc(F)c(F)c1)c1ccccc1I (relative stereo) [Example 131]
3.23^[b]	Cn1cccc1C(=O)N[C@@H]1CCC[C@H]1c1ccc(F)c(F)c1 (relative stereo) [Example 132]
3.17^[b]	Cc1occc1C(=O)N[C@@H]1CCC[C@H]1c1ccc(F)c(F)c1 (relative stereo) [Example 133]
3.46^[b]	Cc1cc(C(=O)N[C@@H]2CCC[C@H]2c2ccc(F)c(F)c2)c(C)o1 (relative stereo) [Example 134]
2.18^[b]	Cn1cc(C(=O)N[C@@H]2CCC[C@H]2c2ccc(F)c(F)c2)c(=O)[nH]1 (relative stereo) [Example 135]
3.46^[b]	Cc1ccsc1C(=O)N[C@@H]1CCC[C@H]1c1ccc(F)c(F)c1 (relative stereo) [Example 136]
3.84^[b]	O=C(N[C@@H]1CC[C@H]1c1ccccc1Cl)c1ccc(Cl)cc1Cl (relative stereo) [Example 240]
3.46^[b]	O=C(N[C@@H]1CC[C@H]1c1ccccc1Cl)c1ccccc1I (relative stereo) [Example 241]
3.45^[b]	O=C(N[C@@H]1CC[C@H]1c1ccccc1Cl)c1ccccc1C(F)(F)F (relative stereo) [Example 242]
